In patent publication US4230698A, “2-Substituted arabinofuranosyl nucleosides and nucleotides” (Research Corporation, priority 1978, dated 1980):

What was measured:
[1] = tested on: HeLa; assay: In vitro cytotoxicity testing (growth inhibition, Trypan Blue exclusion), HeLa; format: cell-based; conditions: Homo sapiens, 40 hr, 37 degrees C, read-out: Concentration for 50% Inhibition of Growth
Experimental: (§1) Cytarazid, the β-anomer of the nucleoside prepared in Example 3 herein, and cytaramin, the nucleoside prepared in Example 4 herein, are evaluated in vitro for growth inhibiting potency against mammalian cancer cells by a micro technique, using the culture conditions described by Bobek et al. in J. Med. Chem., vol. 20, p. 458 (1977), whereby 0.5 ml. aliquots of medium (RPMI 1640.div.10% fetal calf serum) containing the test compound are introduced into 16×125 mm. screw cap culture tubes, followed by 0.5 ml. portions of the medium containing 1×10^5 mammalian cancer cells. The cultures are incubated at 37 degrees C. for 40 hr., after which time the viable cells are counted by Trypan Blue exclusion. During this time the cell number in the controls increases about four to nine-fold with an average cell viability of 99%. The test results are as follows:
(§2) Concentration for 50% Inhibition of Growth
(§3) Cell Line Cytarazid Cytaramin

[2] = tested on: L-1210; assay: In vitro cytotoxicity testing (growth inhibition, Trypan Blue exclusion), L-1210; format: cell-based; conditions: Mus musculus, L1210, 40 hr, 37 degrees C, read-out: Concentration for 50% Inhibition of Growth
Experimental: as §1, §2, §3

[3] = tested on: L-1210 leukemic cells; assay: In vivo cytotoxicity testing, survival of mice inoculated with L-1210 leukemic cells; set-up: species or system DBA/2 HaDD mice; conditions: control 8.7 days
Experimental: Cytarazid and cytaramin are evaluated in vivo for growth inhibitory potency against leukemic cells by intraperitoneally inoculating DBA/2 HaDD mice with an IP-PBS saline suspension of 1×10^6 L-1210 leukemic cells, waiting 24 hrs., and then administering the test compound intraperitoneally in 0.2 ml. of saline-phospate buffer solution (pH 7.0).

[4] = tested on: CR-CdR deaminase; assay: in vitro
Experimental: (§4) Partially purified CR-CdR deaminase is prepared from two different sources: (1) human liver, following the procedure of Wentworth and Wolfender, Biochemistry, vol. 14, p. 5099 (1975), and (2) blast cells of patients with acute myelocytic leukemia, using ammonium sulfate fractionation and DEAE column chromatography. The assay procedure is described by Wentworth and Wolfander, ibid.

[5] = tested on: Herpes Simplex type I virus; assay: In vitro antiviral testing, plaque reduction, Herpes Simplex type I; format: cell-based; conditions: for antiviral properties: plaque reduction
From the text: (§5) Cytarazid and cytaramin, when tested in vitro against Herpes Simplex types I and II viruses, utilizing the plaque reduction technique described by Dulbecco, Proceedings National Academy of Sciences, vol. 38, p.

[6] = tested on: Herpes Simplex type II virus; assay: In vitro antiviral testing, plaque reduction, Herpes Simplex type II; format: cell-based; conditions: for antiviral properties: plaque reduction
From the text: as §5

[7] = in vitro; conditions: human, cr-cdr deaminase
Experimental: as §4

[8] = tested on: Molt 4F (T-type from lymphoblastic leukemia); assay: In vitro cytotoxicity testing (growth inhibition, Trypan Blue exclusion), Molt 4F; format: cell-based; conditions: Homo sapiens, 40 hr, 37 degrees C, read-out: Concentration for 50% Inhibition of Growth
Experimental: as §1, §2, §3

[9] = 50 μM, read-out: inhibition of the virus (log)

| half-life [7] | SMILES | IC50 [1] | IC50 [2] | Survival Time ([3]; 75 mg/kg IP twice per day 8 hrs apart for 2 days beginning 24 hrs after tumor inoculation) | deamination detected in 8 hrs [4] | antiviral properties [5] | antiviral properties [6] | IC50 [8] | Survival Time ([3]; 40 mg/kg IP twice per day 8 hrs apart for 2 days beginning 24 hrs after tumor inoculation) | inhibition at 50 µM ([5]; 50 μM) | log reduction at 50 µM [5, 9] | inhibition at 50 µM ([6]; 50 μM) | log reduction at 50 µM [6, 9] |
| --- | --- | --- | --- | --- | --- | --- | --- | --- | --- | --- | --- | --- | --- |
| – | Nc1ccn([C@@H]2O[C@H](CO)[C@@H](O)[C@@H]2N)c(=O)n1 [Cytaramin, 1-(2-amino-2-deoxy-β-D-arabinofuranosyl) cytosine] | 30 µM | 4000 nM | > 120 days | no significant deamination | significant antiviral properties | significant antiviral properties | – | – | – | – | – | – |
| 45 min | Nc1ccn([C@@H]2O[C@H](CO)[C@@H](O)[C@@H]2O)c(=O)n1 [cytarabine, reference compound] | – | – | – | – | – | – | – | – | – | – | – | – |
| – | [N-]=[N+]=N[C@H]1[C@H](O)[C@@H](CO)O[C@H]1n1ccc(N)nc1=O [Cytarazid, 1-(2-azido-2-deoxy-β-D-arabinofuranosyl) cytosine] | 0.2 µM | 600 nM | – | no significant deamination | significant antiviral properties | significant antiviral properties | 70 nM | > 120 days | > 99.9% | > 3 | > 99% | > 2 |
